As a reminder, the EC50 is the concentration that produces a half-maximal response.

Where no end group is shown, it is not given here. Where only a bound is given, the exact number is not on record here.

Test [1] deals with Sp9-BS68 rtgS1 promoter (PrtgS1-luc; RtgR-dependent). Put plainly: RtgS dose-response assay, PrtgS1-luc reporter, Sp9-BS68 ΔrtgS1. As to conditions: for induction of rtgS1 promoter: Sp9-BS68 PrtgS1-luc, CDM+ and THY; for Maximal response / EC50: Sp9-BS68 ΔrtgS1, mean ± SE from Hill fit, 3 independent experiments, max PrtgS1 activity within 60 min; for EC50: synthetic peptide added at OD620 0.02, luminescence, 37°C. It is filed as cell-based, Streptococcus pneumoniae Sp9-BS68. The procedure: (§1) FIG 2 The Rgg/SHP-like RtgR/RtgS system regulates rtg. (A) rtgR and rtgS1 are required for rtg activation in Sp9-BS68. Sp9-BS68 PrtgS1-luc reporters were grown in CDM+ or THY and monitored for rtg activation (dark, left y axis) and cell density (light, right y axis). Plots show medians (lines) and 25% to 75% quantiles (shading) from 12 wells pooled from 3 independent experiments. (B) Translated rtgS gene products from Sp9-BS68 and D39. The type-defining residues are highlighted in red. (C) rtgS1 but not rtgS2 is required for rtg activation in D39. D39 PrtgS1-luc reporters were grown in CDM+ and monitored for rtg activation (dark, left y axis) and cell density (light, right y axis). Plots show medians (lines) and 25% to 75% quantiles (shading) from 30 wells pooled from 3 independent experiments. C-terminal fragments of RtgSA induce rtg in an RtgR-dependent manner. Sp9-BS68 PrtgS1-luc reporters were grown in CDM+ and THY (D) or CDM+ only (E) to an OD620 of 0.02 and treated with synthetic RtgSA fragments. Response was defined as the maximum observed PrtgS1 activity within 60 min of treatment. Data in panel D were fitted to the four-parameter Hill model (curves). Plotted data points represent means ± SEs from 3 independent experiments. […] A D39 ΔrtgS1 ΔrtgS2 PrtgS1-luc reporter was grown in CDM+ to an OD620 of 0.02 and treated with synthetic RtgS fragments. Response was defined as the maximum observed PrtgS1 activity within 60 min of treatment. Data were fitted to the four-parameter Hill model (curves). Plotted data points represent means ± SEs from 3 independent experiments. […] A D39 ΔrtgS1 ΔrtgS2 PrtgS1-luc reporter was grown in CDM+ to an OD620 of 0.02 and treated simultaneously with 2 nM RtgSA-C10 and various concentrations of RtgSB-C10. Response was defined as the maximum observed PrtgS1 activity within 120 min of treatment. Plotted data points represent means ± SEs from 3 independent experiments. **, P < 0.01; ***, P < 0.001 versus 0 nM RtgSB-C10 by ANOVA with Dunnett’s correction for multiple comparisons.
(§2) All strains were derived from Sp9-BS68 ([36]), D39, or the R6 strain P654 (referred to as PSD100 in reference) (see Table S1 and methods in Text S1 in the supplemental material for details). […] Pneumococcus was grown in either filter-sterilized THY (Todd Hewitt broth plus 0.5% yeast extract) or CDM+ (see methods in Text S1) ([38]) at 37°C. All media contained 5 μg/ml catalase. All CDM+ was supplemented with 0.5% (vol/vol) THY. Except where noted otherwise, pneumococcal cultures used for experiments were inoculated to an OD620 of 0.0015 from starter cultures grown in THY (pH 7.4) to an OD620 of 0.275 and frozen at −80°C in 13% glycerol. Starter cultures were pelleted at 6,000 × g for 5 min at room temperature and resuspended in the appropriate growth medium for the experiment before being used for inoculation. Antibiotics were used at the following concentrations: chloramphenicol, 2 μg/ml; gentamicin, 200 μg/ml; kanamycin, 500 μg/ml; spectinomycin, 200 μg/ml; streptomycin, 100 μg/ml.
Cells expressing PrtgS1-luc reporters were grown in THY or CDM+ containing 330 μM firefly luciferin. At an OD620 of 0.02, cultures were aliquoted into a white, clear-bottom 96-well plate (655098; Greiner Bio-One), 100 μl per well. Each well of the plate was prefilled with 100 μl sterile medium containing 0.5% (vol/vol) dimethyl sulfoxide (DMSO), 330 μM firefly luciferin, and appropriate concentrations of synthetic RtgS peptide (Genscript). The plate was then incubated in a Synergy HTX plate reader set to read absorbance at 620 nm and luminescence every 5 min. For D39 strains only, the plate was shaken before readings were taken. PrtgS1 activity was calculated, and the response was defined as the maximum observed PrtgS1 activity within 60 min (Sp9-BS68) or 120 min (D39) of treatment. When applicable, curves were fit to a Hill model using the nls() function in R 3.5.1.

The target of test [2] is T1, D39 PrtgS1-luc (rtg locus) (Streptococcus pneumoniae, UniProt A0ACD7PPC8).
T1 sequence (A0ACD7PPC8 1-287): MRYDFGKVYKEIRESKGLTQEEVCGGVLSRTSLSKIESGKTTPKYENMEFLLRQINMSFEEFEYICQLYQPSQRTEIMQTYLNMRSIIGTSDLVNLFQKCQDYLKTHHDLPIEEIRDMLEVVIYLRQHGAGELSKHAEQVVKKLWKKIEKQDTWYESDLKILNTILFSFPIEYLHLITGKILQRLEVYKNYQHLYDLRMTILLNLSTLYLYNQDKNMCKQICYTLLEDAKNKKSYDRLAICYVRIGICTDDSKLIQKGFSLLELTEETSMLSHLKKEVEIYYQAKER
Description: RtgS dose-response assay, PrtgS1-luc reporter, D39 ΔrtgS1 ΔrtgS2. It is filed as cell-based. As to conditions: CDM+; for Maximal response: mean ± SE from Hill fit, 3 independent experiments, max PrtgS1 activity within 60 min / 120 min (methods). The procedure:
as §1, §2
(§3) Cells expressing PrtgS1-luc reporters were grown in THY or CDM+ containing 330 μM firefly luciferin. […] The plate was then incubated in a Synergy HTX plate reader set to read absorbance at 620 nm and luminescence every 5 min. For D39 strains only, the plate was shaken before readings were taken. PrtgS1 activity was calculated, and the response was defined as the maximum observed PrtgS1 activity within 60 min (Sp9-BS68) or 120 min (D39) of treatment. […]

Test [3] relates to Sp9-BS68 PrtgS1-luc in ΔpptAB and ΔamiCD mutants. Description: Response of ΔpptAB and ΔamiCD PrtgS1-luc reporters to exogenous RtgS. As to conditions: CDM+, RtgSA-C10 at OD620 0.02, max within 60 min, 3 independent experiments. The format is cell-based, Streptococcus pneumoniae Sp9-BS68. How it is done: Supplementary file : FIG S1 Ami and PptAB are required for RtgR/S signaling. (A) Both Ami and PptAB are required for natural rtg autoinduction. Sp9-BS68 PrtgS1-luc reporters were grown in CDM+ and monitored for rtg activation (dark, left y axis) and cell density (light, right y axis). Plots show medians (lines) and 25% to 75% quantiles (shading) from 30 wells per strain pooled from 3 independent experiments. […] Sp9-BS68 PrtgS1-luc reporters were grown in CDM+ to an OD620 of 0.02 and treated with RtgSA-C10. Response was defined as the maximum observed PrtgS1 activity within 60 min of treatment. Plotted data points represent means ± SEs from 3 independent experiments. Download FIG S1, PDF file, 0.6 MB.
Cells expressing PrtgS1-luc reporters were grown in THY or CDM+ containing 330 μM firefly luciferin. At an OD620 of 0.02, cultures were aliquoted into a white, clear-bottom 96-well plate (655098; Greiner Bio-One), 100 μl per well. […] The plate was then incubated in a Synergy HTX plate reader set to read absorbance at 620 nm and luminescence every 5 min. For D39 strains only, the plate was shaken before readings were taken. PrtgS1 activity was calculated, and the response was defined as the maximum observed PrtgS1 activity within 60 min (Sp9-BS68) or 120 min (D39) of treatment. […]

Test [4] has as its target T1, D39 PrtgS1-luc (rtg locus). Put plainly: Competitive dose-response assay of RtgSB-C10 against RtgSA-C10, D39 ΔrtgS1 ΔrtgS2 PrtgS1-luc. It is filed as cell-based. As to conditions: CDM+. The procedure:
FIG 2 The Rgg/SHP-like RtgR/RtgS system regulates rtg. (A) rtgR and rtgS1 are required for rtg activation in Sp9-BS68. Sp9-BS68 PrtgS1-luc reporters were grown in CDM+ or THY and monitored for rtg activation (dark, left y axis) and cell density (light, right y axis). Plots show medians (lines) and 25% to 75% quantiles (shading) from 12 wells pooled from 3 independent experiments. (B) Translated rtgS gene products from Sp9-BS68 and D39. The type-defining residues are highlighted in red. (C) rtgS1 but not rtgS2 is required for rtg activation in D39. D39 PrtgS1-luc reporters were grown in CDM+ and monitored for rtg activation (dark, left y axis) and cell density (light, right y axis). Plots show medians (lines) and 25% to 75% quantiles (shading) from 30 wells pooled from 3 independent experiments. C-terminal fragments of RtgSA induce rtg in an RtgR-dependent manner. […]
as §3

Regarding AIIFPWGWPI [RtgSA-C10], in test [1], the “induction of rtgS1 promoter” value was “induced expression from the Sp9-BS68 rtgS1 promoter in both CDM+ and THY”. Further, in test [1] (CDM+), the Maximal response is 205.7 ± 9.1 10^3 RLU·min^−1·OD620^−1 and the EC50 came to 1.63 ± 0.19 nM. For the same sequence, in test [1] (THY), the Maximal response is listed as 232.4 ± 14.3 10^3 RLU·min^−1·OD620^−1 and the 50% effective concentration (EC50) came out at 47.4 ± 6.9 nM. In test [2], the “rtg induction / type of agonism” value is “induces rtg similarly to Sp9-BS68” and the Maximal response is listed as 75.1 ± 8.1 10^3 RLU·min^−1·OD620^−1. For the same sequence, the “rescue of rtg activation by exogenous RtgS” value in test [3] is “rescues rtg activation defect in the ΔpptAB mutant but not the ΔamiCD mutant”.

As for SLAIIFPWGWPI [RtgSA-C12], the “induction of rtgS1 promoter” value in test [1] is “induced expression from the Sp9-BS68 rtgS1 promoter in both CDM+ and THY”. In test [1] (CDM+), the Maximal response is listed as 213.9 ± 8.0 10^3 RLU·min^−1·OD620^−1 and the EC50 is 3.51 ± 0.28 nM. Further, in test [1] (THY), the Maximal response was 210.1 ± 13.1 10^3 RLU·min^−1·OD620^−1 and the EC50 worked out at 315 ± 42 nM.

Regarding IFPWGWPI [RtgSA-C8], in test [1], the “induction of rtgS1 promoter” value is “induced expression from the Sp9-BS68 rtgS1 promoter in both CDM+ and THY”. Further, in test [1] (CDM+), the Maximal response is 212.2 ± 9.4 10^3 RLU·min^−1·OD620^−1 and the concentration giving a half-maximal response (EC50) turned out to be 2.53 ± 0.25 nM. In test [1] (THY), the Maximal response is reported as 229.7 ± 8.6 10^3 RLU·min^−1·OD620^−1 and the half-maximal effective concentration (EC50) stood at 184 ± 15 nM.

AIIFPWGWSI [RtgSB-C10]: in test [2], the “rtg induction / type of agonism” value is “partial agonist” and the Maximal response is listed as 21.2 ± 1.5 10^3 RLU·min^−1·OD620^−1. In addition, in test [2] (versus RtgSA-C10), the “EC50 value larger than that of RtgSA-C10 (ratio)” value amounted to 55 fold. In addition, in test [4] (high concentrations with 2 nM RtgSA-C10, 3 independent experiments), the “antagonism of RtgSA-C10” value is reported as “antagonize RtgSA-C10”. In test [4] (simultaneous with 2 nM RtgSA-C10, max PrtgS1 activity within 120 min, 3 independent experiments), the “concentration antagonizing RtgSA-C10” value is not below 256 nM.

These data come from article PMC7018657, “Molecular Determinants of Substrate Selectivity of a Pneumococcal Rgg-Regulated Peptidase-Containing ABC Transporter” (mBio, 2020).
